Consider 17 compounds from PubChem BioAssay (NCI).

Common to all, as to experiment: DTP human tumour cell line panel, 48 h
The subject of assay [1] is ACHN renal.
Assay [2] deals with DU-145 prostate.
For assay [3], the system named is EKVX NSCLC.
The test system of assay [4] is HCC-2998 colon.
The subject of assay [5] is HT29 colon.
In assay [6] the test system is K-562 leukemia.
Assay [7] relates to NCI-H23 lung.
In assay [8] the test system is NCI-H460 lung.
Assay [9] has as its system NCI-H522 lung.
In assay [10] the test system is NCI/ADR-RES ovarian.
Assay [11] deals with OVCAR-8 ovarian.
The test system of assay [12] is SF-268 CNS.
Assay [13] concerns SK-MEL-2 melanoma.
For assay [14], the system named is SN12C renal.
Assay [15] deals with T-47D breast.
Assay [16] deals with UO-31 renal.
In assay [17] the test system is SK-OV-3 ovarian.
Assay [18] relates to HL-60(TB) leukemia.
Assay [19] has as its system HOP-92 NSCLC.

Each structure is given as a SMILES string.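 Protocol summary: plate cells (96-well), add compound at 5 concentrations, incubate 48 h, interpolate endpoints linearly. TGI: concentration producing complete growth inhibition.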

As usually defined, the TGI is the concentration giving total growth inhibition.

In the case of `CCc1nc2ccc(N=NN(C)C)cc2[nH]1`, the TGI in [1], in [2], in assay [3], in [4], in [5] and in assay [6] was above 100 µM each time. For the same compound, the TGI in [7], in assay [8], in [9], in assay [10], in assay [11] and in [12] was above 100 µM throughout. Moreover, the TGI in assay [13], in assay [14], in assay [15] and in [16] was above 100 µM each time.

With `CC[C@]1(Cc2ccc(OC)c(OC)c2)[C@@H]2C[C@@H](C3OCCO3)ON2O[C@H](OC2CCCC2(c2ccccc2)c2ccccc2)[C@@H]1OC(C)=O` (some centres undefined), the TGI in [1] was 33.5 µM; in [2] it was 83.9 µM; in [3], 44.6 µM; in [5] it was 42.4 µM; in [6] it was 39.1 µM; in assay [7] it was 43.4 µM. The TGI came out at 34.7 µM in [8]; 29.7 µM in assay [9]; 53.9 µM in assay [10]; 46.4 µM in [11]; 44.1 µM in [12]; 29.5 µM in assay [13]. The TGI was above 100 µM in assay [17], above 100 µM in [14], 50.3 µM in [15] and 37.7 µM in [16].

For `CC(=C\c1ccccc1)/C=C(\C#N)C(N)=O`, the TGI in [1], in assay [2], in [3], in assay [4], in assay [5] and in assay [8] was above 10 µM throughout. For the same compound, the TGI in [9], in [10], in assay [11], in assay [12], in assay [13] and in [17] was above 10 µM in each case. In addition, the TGI in assay [14], in [15] and in assay [16] was above 10 µM throughout.

On to `COc1ccc(OC)c(N2C(=O)CSC2c2cc(OC)c(OC)c(OC)c2)c1` (centres undefined), for which the TGI in assay [1], in assay [2], in [3], in [4], in assay [18] and in [19] was above 100 µM throughout. The TGI in [5], in [6], in [7], in [8], in [9] and in assay [10] was above 100 µM each time. For the same compound, the TGI in assay [11], in [12], in assay [13], in assay [17], in assay [14] and in [16] was above 100 µM each time.

For `CC(C)C1=C(Cc2ccccc2)C(=O)O/C1=C\c1cc(Cl)c(O)c(Cl)c1`, the TGI in assay [1] amounted to 33 µM; in [2], 30.3 µM; in [3], 65.1 µM; in assay [4] it was 42.3 µM; in assay [18], 41.7 µM; in assay [5] it was 32.2 µM. The TGI in assay [6] turned out to be 40.5 µM; in [7], 32.9 µM; in [8] it was 41.2 µM; in [10], 52.3 µM; in assay [11], 42.4 µM; in assay [12] it was 48.2 µM. Also, the TGI in assay [17] came to 39.7 µM; in [14], 35.6 µM; in [16], 27.1 µM.

Turning to `Cc1ccc(C(=O)N/N=C(\N=Nc2ccccc2[N+](=O)[O-])c2ccc(N(C)C)cc2)cc1`, the TGI in assay [1], in assay [3], in assay [4], in [18], in [19] and in assay [5] was above 100 µM in each case. Moreover, the TGI in assay [6], in assay [7], in assay [8], in [9], in assay [10] and in assay [11] was above 100 µM each time. Further, the TGI in [12], in [13], in [17], in [14] and in assay [16] was above 100 µM in each case.

With `COc1ccc(C(O)c2nccn2C)c(OC)c1` (centres undefined), the TGI in assay [1], in [2], in [3], in assay [4], in [18] and in assay [19] was above 100 µM throughout. Also, the TGI in [5], in assay [6], in assay [7], in [8], in [9] and in [10] was above 100 µM in each case. For the same compound, the TGI in [11], in assay [12], in assay [13], in assay [17], in assay [14] and in assay [16] was above 100 µM throughout.

Turning to `CSc1ncnc2c1cnn2CCCCO`, the TGI in assay [1], in assay [2], in assay [3], in assay [4], in assay [18] and in assay [19] was above 100 µM throughout. Moreover, the TGI in [5], in assay [6], in assay [7], in assay [8], in assay [9] and in [12] was above 100 µM throughout. The TGI in assay [13], in assay [17], in [14], in [15] and in [16] was above 100 µM each time.

For the compound `O=c1c2c(-c3ccccc3)onc2n(-c2ccccc2)c(=O)n1-c1ccccc1`, the TGI was above 100 µM in [1]; 59.5 µM in assay [3]; 33.1 µM in assay [4]; above 100 µM in assay [19]; 45.3 µM in [5]; above 100 µM in assay [6]. The total growth inhibition concentration (TGI) in assay [7] is 47.8 µM; in assay [8], 36.8 µM; in assay [9], 33.2 µM; in [10], 43.2 µM; in assay [11], 45.5 µM; in assay [12], above 100 µM. Also, the TGI is 25 µM in assay [13]; above 100 µM in assay [17]; above 100 µM in [14]; above 100 µM in assay [15]; 30.4 µM in assay [16].

`Cn1c(=O)c2c(no[n+]2[O-])c2ccccc21`: the TGI in assay [1] was 83 µM; in [3], 46.1 µM; in assay [4] it was 27.3 µM; in assay [19] it was 52.2 µM; in [5] it was 37.2 µM; in [6] it was above 100 µM. The TGI in [7] is 34.8 µM; in [8], 35.3 µM; in assay [9], 27.8 µM; in assay [10], 47.3 µM; in [11] it was 28.3 µM; in assay [12], 59.2 µM. For the same compound, the TGI in assay [13] is 28.7 µM; in assay [17] it was 77 µM; in assay [14] it was 59.8 µM; in assay [15], 68.3 µM; in assay [16] it was 55 µM.

In the case of `CCSc1[nH]c(Nc2nc(-c3ccccc3)n(-c3ccccc3)n2)c(C(N)=O)c1C(N)=O`, the TGI in [2], in assay [3], in assay [4], in assay [18], in [19] and in [5] was above 10 µM in each case. Also, the TGI in assay [6], in assay [7], in assay [11], in assay [12], in assay [17] and in [14] was above 10 µM each time. Moreover, the TGI in assay [15] was above 10 µM.

Regarding `O=C1/C(=C/c2ccccc2)NC(=S)N1CN1CCOCC1`, the TGI in assay [1], in assay [2], in assay [3], in [19], in assay [5] and in assay [6] was above 100 µM in each case. The TGI in assay [7], in [10], in assay [11], in assay [12], in assay [13] and in assay [17] was above 100 µM in each case. The TGI in [14] and in [16] was above 100 µM throughout.

With `COc1ccc(-c2c(C#N)c(O)n(NS(=O)(=O)c3ccc(C)cc3)c(=O)c2C#N)cc1`, the TGI in assay [1], in assay [3], in [4], in assay [18], in assay [19] and in assay [5] was above 100 µM each time. Moreover, the TGI in [8], in assay [9], in assay [10], in assay [11], in assay [12] and in assay [13] was above 100 µM in each case. For the same compound, the TGI in assay [17] and in assay [14] was above 100 µM each time.

As for `C[C@@H]1CCC2[C@@H](C)[C@@H](OCCO[C@H]3OC4O[C@@]5(C)CCC6[C@H](C)CCC([C@H]3C)[C@@]46OO5)OC3O[C@@]4(C)CCC1[C@]32OO4` (some centres undefined), the TGI in assay [1] is above 100 µM; in assay [3], above 100 µM; in assay [4] it was above 100 µM; in [18], above 100 µM; in assay [19] it was above 57.7 µM; in [5], above 100 µM. Further, the TGI in assay [7] was 68.9 µM; in [8], above 100 µM; in assay [9], above 100 µM; in assay [10] it was 3.14 µM; in assay [11], above 78.2 µM; in [12] it was above 100 µM. The TGI is 6.06 µM in assay [13]; above 100 µM in assay [17]; above 100 µM in assay [14]; above 100 µM in assay [15]; above 100 µM in assay [16].

For the compound `CN(CCN(C)C(=S)NN)C(=S)NN`, the TGI in assay [1], in [2], in [3], in assay [4], in assay [18] and in assay [5] was above 100 µM throughout. Besides, the TGI in [7], in assay [8], in [9], in [12], in [13] and in [17] was above 100 µM each time. In addition, the TGI in assay [14], in assay [15] and in assay [16] was above 100 µM throughout.

For the compound `COC(=O)c1c(O)ccc2c1c1c(n2Cc2ccc(Cl)cc2Cl)C(=O)c2ccccc2C1`, the TGI in assay [2], in [18], in assay [5], in assay [6], in assay [7] and in assay [8] was above 100 µM each time. Moreover, the TGI in assay [10] is above 100 µM; in [11], above 100 µM; in assay [12] it was above 100 µM; in assay [13], above 100 µM; in assay [17], above 100 µM; in [14], 55.2 µM. Besides, the TGI in [15] and in assay [16] was above 100 µM throughout.

On to `CC(C)(C)C(=O)OC(N)/C=C/c1ccccc1` (centres undefined), for which the TGI in assay [1], in [3], in [4], in assay [18], in assay [19] and in assay [5] was above 100 µM in each case. Also, the TGI in assay [7], in assay [8], in assay [9], in assay [10], in assay [11] and in assay [13] was above 100 µM each time. The TGI in [17], in [14], in assay [15] and in assay [16] was above 100 µM in each case.
